For assay [1], the system named is ear edema. The assay can be described thus: Mouse Ear Edema Test (In Vivo), arachidonic acid. The arrangement: species or system CD-1 male mice. Particulars: topical, 1 h, at 1 mg topically. The text has this:
Invest. Dermatol. 80:48 (1983) and Hames, Opas and Bonney, "Arachidonic Acid Metabolites in Mouse Ear Edema" Advances in Inflammation Research, 11:57 (1986). […] CD-1 male mice weighing 15 to 25 g were employed, and they were designated as follows: (1) Control Group, in which no arachidonic acid or test compound was to be applied, (2) Arachidonic Acid-Treated Group, in which no test compound was to be applied, and (3) Treated Group, in which the test compound was to be applied first, followed by the application of arachidonic acid. In the case of the Group (3) animals, the test compound, dissolved in acetone, was applied to the dorsal surface of the right ear of the mouse with a 25-microliter pipettor, with the dose of the test compound being varied. After 0.5 hours in some cases and 4 hours in others, the arachidonic acid was topically applied in the same manner as above to the pretreated ear areas. In each case of arachidonic acid application, an amount of 0.5 mg dissolved in 25 microliters of acetone was used. After 1 hour, the mice were sacrificed by carbon dioxide inhalation. A 6 mm-diameter standard biopsy punch was used to obtain a uniform tissue sample from the ear of each mouse so treated, and the tissue samples were weighed to the nearest 0.1 mg. The percent inhibition of ear edema formation was calculated as follows: [formula]

The nature of assay [2]: Rat In Vivo Model of Myocardial Ischemia (free radical generator infusion). The arrangement: species or system male spontaneously hypertensive rats. Particulars: for Rat Ischemia Model % Infarction: percent of left ventricle infarcted of the animals with an infarct. As for the experimental part: In this preparation a free radical generating (FRG) system consisting of purine (2.3 mM), xanthine oxidase (0.02 U/ml) and iron loaded transferring (0.6 μM) complex is infused into the carotid artery near the ostium of the coronary artery in spontaneously hypertensive rats. Blood is withdrawn before and 24 hours after the FRG challenge for measuring the isoenzymes of lactic acid dehydrogenase (LDH1 :LDH2). An increase in LDH1 :LDH2 ratio reflects cell damage to the myocardium. The electrocardiogram is also taken before and 24 hours after the FRG infusion. At the end of the experiment the heart is removed, sliced in a breadloaf fashion, and stained with triphenyltetrazolium chloride to determine infarct size. A drug or vehicle is administered intravenously 10-30 minutes before the FRG challenge. A drug is considered active if there is no elevation of the LDH1 :LDH2 ratio, no ECG abnormalities and no histologic evidence of an infarction.
Male spontaneously hypertensive rats (280-320 g) from Taconic Farms, were lightly anesthetized with sodium pentobarbital (30-50 mg/kg, i.p.). […] A catheter of PE 50 tubing was inserted into the right common carotid artery to a position proximal to the ostia of the coronary arteries and used to sample blood and infuse the free radical generator (FRG) system. A second catheter of PE 10 tubing was inserted into the left jugular vein to administer drugs. The infusion system for the FRG consisted of a double syringe infusion pump, Sage Model 351, with one syringe containing xanthine oxidase (0.01 units/ml) in a HEPES (0.05M) buffer and the other syringe containing purine (2.3 mM) plus Fe^3+ loaded transferring (0.06 μM) in a HEPES (0.05M) buffer. The FRG infused separately mixes simultaneously near the ostia of the coronary arteries. This infusion was delivered at a rate of 0.03 ml/minute for a total infusion time of 10 minutes. The drugs were infused over a one minute period in a 0.9% saline vehicle.
Standard Lead II ECG was monitored continuously on a Hewlett-Packard 7758A recorder prior to treatment, throughout the FRG infusion and 10 minutes post infusion. Catheters were removed and animals were allowed to recover and fed standard rat chow and water ad libitum. 24 hours following the FRG infusion, animals were reanesthetized with sodium pentobarbital (30-50 mg/kg, i.p.) and an ECG was obtained. Blood samples were taken prior to and after the FRG infusion and at the conclusion of the experiment. These samples were centrifuged and assayed for total lactate dehydrogenase (LDH) and lactate dehydrogenase isoenzymes (LDH1 :LDH2), using electrophoresis.
The animals were sacrificed, the hearts rapidly excised, and washed free of blood and sectioned. The left ventricle was weighed and stored in a Revco® freezer at -70° C. The left ventricle was sliced into 2 mm-thick rings, incubated in a 1% triphenyltetrazolium chloride solution for 20 minutes, and then fixed in a 10% formalin solution. Infarcted areas were measured and quantitated as a percentage of the total left ventricular volume.

In assay [1], `CCCc1c(OCCCCCCc2ccc(C(C)C)c(O)c2O)ccc(C(=O)O)c1O` [4-[6-[2,3-dihydroxy-4-(1-methylethyl)phenyl]hexyloxy]-2-hydroxy-3-propylbenzoic acid] returned an inhibition in vivo at 1 mg of 45%. Besides, in assay [2] (10 mg/kg iv), the “Rat Ischemia Model Infarcts/Total” value is 1/5 and the “Rat Ischemia Model % Infarction” value is 5%.
Consider `CCCc1c(OCCCCc2cccc(O)c2O)ccc(C(C)=O)c1O` [1-[2-Hydroxy-4-[4-(2,3-dihydroxyphenyl)butoxy]-3-propylphenyl]ethanone], for which, in assay [2] (10 mg/kg iv), the “Rat Ischemia Model Infarcts/Total” value is recorded as 1/5 and the “Rat Ischemia Model % Infarction” value was 12%.
With `CCCc1c(OCCCCCCCc2cccc(O)c2O)ccc(C(=O)O)c1O` [4-[7-(2,3-dihydroxyphenyl)heptyloxy]-2-hydroxy-3-propylbenzoic acid], the inhibition in vivo at 1 mg in assay [1] came out at 57%. Also, in assay [2] (10 mg/kg iv), the “Rat Ischemia Model Infarcts/Total” value is listed as 3/5 and the “Rat Ischemia Model % Infarction” value was determined as 18%.
On the same counts, the results for `CCCc1c(OCCCCCCc2cccc(O)c2O)ccc(C(=O)O)c1O` [4-[6-(2,3-Dihydroxyphenyl)hexyloxy]-2-hydroxy-3-propylbenzoic acid] are 46%, 4/5 and 8%.
As to `CCCc1c(O)c(C(=O)O)cc(Cl)c1OCCCCCCc1cccc(O)c1O` [5-Chloro-2-hydroxy-4-[6-(2,3-dihydroxyphenyl]hexyloxy]-3-propylbenzoic acid], the inhibition in vivo at 1 mg in assay [1] was 51%.
In turn, `CCCc1c(OCCCCCCc2cccc(O)c2O)ccc(C(=O)OCC)c1O` [4-[6-(2,3-Dihydroxyphenyl)hexyloxy]-2-hydroxy-3-propylbenzoic acid ethyl ester] yielded an inhibition in vivo at 1 mg in assay [1] of 64%.
In assay [1], `CCCc1c(OCCCc2ccc(O)c(O)c2)ccc(C(=O)O)c1O` [4-[3-(3,4-Dihydroxyphenyl)propoxy]-2-hydroxy-3-propylbenzoic acid] had an inhibition in vivo at 1 mg of 32%.
For the compound `CCCc1c(OCCCCCCCCCCc2cccc(O)c2O)ccc(C(=O)O)c1O` [4-[10-(2,3-dihydroxyphenyl)decyloxy]-2-hydroxy-3-propylbenzoic acid], in assay [1], the inhibition in vivo at 1 mg turned out to be 49%. Besides, in assay [2] (10 mg/kg iv), the “Rat Ischemia Model Infarcts/Total” value is on record as 3/3 and the “Rat Ischemia Model % Infarction” value is given as 13%.
On the same counts, the results for `CCCc1c(OCCCCCCCCc2cccc(O)c2O)ccc(C(=O)O)c1O` [4-[8-(2,3-dihydroxyphenyl)octyloxy]-2-hydroxy-3-propylbenzoic acid] are 78%, 1/5 and 8%.
On the same counts, the results for `O=C(O)c1ccc(OCCCCCCc2cccc(O)c2O)cc1` [4-[6-(2,3-Dihydroxyphenyl)hexyloxy]benzoic acid] are 48%, 2/5 and 19%.
On the same counts, the results for `O=C(O)c1ccc(OCCCCCCc2cccc(O)c2O)cc1O` [4-[6-(2,3-Dihydroxyphenyl)hexyloxy]-2-hydroxybenzoic acid] are 50%, 3/5 and 10%.
As for `CCCc1c(OCCCCCc2cccc(O)c2O)ccc(C(=O)O)c1O` [4-[5-(2,3-Dihydroxyphenyl)pentyloxy]-2-hydroxy-3-propylbenzoic acid], in assay [1], the inhibition in vivo at 1 mg came out at 0%. In addition, in assay [2] (10 mg/kg iv), the “Rat Ischemia Model Infarcts/Total” value was 4/5 and the “Rat Ischemia Model % Infarction” value is given as 15%.
`CCCc1c(OCCCCCCc2ccc(O)c(O)c2)ccc(C(=O)O)c1O` [4-[6-(3,4-dihydroxyphenyl)hexyloxy]-2-hydroxy-3-propylbenzoic acid] registered an inhibition in vivo at 1 mg in assay [1] of 21%. Besides, in assay [2] (5 mg/kg iv), the “Rat Ischemia Model Infarcts/Total” value was 1/5 and the “Rat Ischemia Model % Infarction” value is 11%.
Regarding `CCCc1c(OCCCCc2cccc(O)c2O)ccc(C(=O)O)c1O` [4-[4-(2,3-dihydroxyphenyl)butoxy]-2-hydroxy-3-propylbenzoic acid], in assay [1], the inhibition in vivo at 1 mg is 17%. In assay [2] (10 mg/kg iv), the “Rat Ischemia Model Infarcts/Total” value is 2/5 and the “Rat Ischemia Model % Infarction” value came out at 8%.
On the same counts, the results for `CCCc1c(OCCCCCCc2cccc(O)c2O)ccc(C(C)=O)c1O` [1-[2-hydroxy-4-[6-(2,3-dihydroxyphenyl)hexyloxy]-3-propylphenyl]ethanone] are 21%, 4/4 and 24%.
As to `CCCc1c(OCCCCCCc2ccc(C(C)C)c(O)c2O)ccc(C(C)=O)c1O` [1-[2-hydroxy-4 [6-[2,3 dihydroxy-4-(1-methylethyl)phenyl]hexyloxy]-3 propylphenyl]ethanone], in assay [2] (10 mg/kg iv), the “Rat Ischemia Model Infarcts/Total” value was 2/5 and the “Rat Ischemia Model % Infarction” value was 11%.

For the origin of these results see patent US5025036A, “Catechol carboxylic acids” (Hoffmann-La Roche Inc., priority 1989, dated 1991).
